Measured values published in patent US12331040B2 (Karyopharm Therapeutics Inc., priority 2013, dated 2025).

What was measured:
Experiment in all cases: MTT cell proliferation assay
Type in all cases: cell-based
Z138 cells = details: Homo sapiens, Z-138, Z138 cells; approximately 64-72 hours incubation; read-out: MTT Assay IC50, Z-138
Outline: (§1)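 Cytotoxicity was measured by MTT: OD490 of the solubilized formazan after roughly 4 h with MTT reagent, reported as mean percent inhibition relative to the negative control. Test compounds covered eight concentrations between 1 nM and 30 μM, added to 5,000–10,000 cells per well that had attached overnight.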

3T3 cells = details: Mus musculus, NIH3T3, approximately 64-72 hours incubation, read-out: MTT Assay IC50, 3T3
Outline: as §1

MS751 cells = details: Homo sapiens, MS751, MS751 cells; approximately 64-72 hours incubation; read-out: MTT Assay IC50, MS-751
Outline: as §1

SMILES | IC50 (Z138 cells) | IC50 (3T3 cells) | IC50 (MS751 cells)
Nc1ccc(/C=C/C(=O)NCc2cc3cc(-c4ccc(C(=S)N5CCC(F)(F)CC5)cn4)cc(-c4ccc(F)cc4F)c3o2)cn1 [Compound 708, (E)-3-(6-aminopyridin-3-yl)-N-((7-(2,4-difluorophenyl)-5-(5-(4,4-difluoropiperidine-1-carbonothioyl)pyridin-2-yl)benzofuran-2-yl)methyl)acrylamide] | < 100 nM | 100 to 5000 nM | < 100 nM
CCS(=O)(=O)c1ccc(-c2cc(-c3ccc(F)cc3)c3oc(CNC(=O)/C=C/c4ccc(N)nc4)cc3c2)cc1 [Compound 709, (E)-3-(6-aminopyridin-3-yl)-N-((5-(4-(ethylsulfonyl)phenyl)-7-(4-fluorophenyl)benzofuran-2-yl)methyl)acrylamide] | < 100 nM | > 10000 nM | < 100 nM
Nc1ccc(/C=C/C(=O)NCc2cc3cc(-c4ccc(C(=O)N5CCC(F)(F)CC5)cn4)cc(-c4ccc(F)cc4F)c3o2)cn1 [Compound 710, (E)-3-(6-aminopyridin-3-yl)-N-((7-(2,4-difluorophenyl)-5-(5-(4,4-difluoropiperidine-1-carbonyl)pyridin-2-yl)benzofuran-2-yl)methyl)acrylamide] | < 100 nM | 100 to 5000 nM | < 100 nM
Nc1ccc(/C=C/C(=O)NCc2cc3cc(-c4ccc(C(=O)N5CCC(F)(F)CC5)cc4)cc(-c4ccc(F)c(Cl)c4)c3o2)cn1 [Compound 711, (E)-3-(6-aminopyridin-3-yl)-N-((7-(3-chloro-4-fluorophenyl)-5-(4-(4,4-difluoropiperidine-1-carbonyl)phenyl)benzofuran-2-yl)methyl)acrylamide] | < 100 nM | 100 to 5000 nM | < 100 nM
Nc1ccc(/C=C/C(=O)NCc2cc3c(-c4ccc(C(=O)N5CCC(F)(F)CC5)cc4)cc(Cl)cc3o2)cn1 [Compound 713, (E)-3-(6-aminopyridin-3-yl)-N-((6-chloro-4-(4-(4,4-difluoropiperidine-1-carbonyl)phenyl)benzofuran-2-yl)methyl)acrylamide] | 100 to 5000 nM | 5000 to 10000 nM | 100 to 5000 nM
Nc1ccc(/C=C/C(=O)NCc2cc3c(Cl)cc(-c4ccc(C(=O)N5CCC(F)(F)CC5)cc4)cc3o2)cn1 [Compound 714] | 100 to 5000 nM | > 10000 nM | 100 to 5000 nM
Nc1ccc(/C=C/C(=O)NCc2cc3cc(-c4cccc(C(=O)N5CCOCC5)c4)cc(C(F)(F)F)c3o2)cn1 [Compound 717, (E)-3-(6-aminopyridin-3-yl)-N-((5-(3-(morpholine-4-carbonyl)phenyl)-7-(trifluoromethyl)benzofuran-2-yl)methyl)acrylamide] | < 100 nM | > 10000 nM | 100 to 5000 nM
Nc1ccc(/C=C/C(=O)NCc2cc3ccc(-c4ccc(C(=O)N5CCC(F)(F)CC5)cn4)cc3o2)cn1 [Compound 718, (E)-3-(6-Aminopyridin-3-yl)-N-((6-(5-(4,4-difluoropiperidine-1-carbonyl)pyridin-2-yl)benzofuran-2-yl)methyl)acrylamide] | 100 to 5000 nM | > 10000 nM | 100 to 5000 nM
O=C(/C=C/c1cccnc1)NCc1cc2cc(-c3ccc(C(=O)N4CCC(F)(F)CC4)cn3)cc(-c3ccc(F)cc3)c2o1 [Compound 719, (E)-N-((5-(5-(4,4-difluoropiperidine-1-carbonyl)pyridin-2-yl)-7-(4-fluorophenyl)benzofuran-2-yl)methyl)-3-(pyridin-3-yl)acrylamide] | < 100 nM | < 100 nM | < 100 nM
O=C(/C=C/c1cccnc1)NCc1cc2cc(-c3ccc(C(=O)N4CCC(F)(F)CC4)cn3)cc(-c3cccc(F)c3)c2o1 [Compound 720, (E)-N-((5-(5-(4,4-difluoropiperidine-1-carbonyl)pyridin-2-yl)-7-(3-fluorophenyl)benzofuran-2-yl)methyl)-3-(pyridin-3-yl)acrylamide] | < 100 nM | < 100 nM | < 100 nM
O=C(/C=C/c1cccnc1)NCc1cc2cc(-c3ccc(C(=O)N4CCC(F)(F)CC4)cn3)cc(-c3cc4ccccc4o3)c2o1 [Compound 721, (E)-N-((5′-(5-(4,4-difluoropiperidine-1-carbonyl)pyridin-2-yl)-[2,7′-bibenzofuran]-2′-yl)methyl)-3-(pyridin-3-yl)acrylamide] | < 100 nM | < 100 nM | < 100 nM
Nc1ccc(/C=C/C(=O)NCc2cc3cc(-c4ccc(C(=O)N5CCC(F)(F)CC5)cc4)cc(-c4ccncc4)c3o2)cn1 [Compound 722, (E)-3-(6-aminopyridin-3-yl)-N-((5-(4-(4,4-difluoropiperidine-1-carbonyl)phenyl)-7-(pyridin-4-yl)benzofuran-2-yl)methyl)acrylamide] | < 100 nM | 100 to 5000 nM | < 100 nM
O=C(/C=C/c1cccnc1)NCc1cc2cc(-c3ccc(C(=O)N4CCC(F)(F)CC4)cc3)cc(-c3ccncc3)c2o1 [Compound 723, (E)-N-((5-(4-(4,4-difluoropiperidine-1-carbonyl)phenyl)-7-(pyridin-4-yl)benzofuran-2-yl)methyl)-3-(pyridin-3-yl)acrylamide] | < 100 nM | < 100 nM | < 100 nM
Nc1ccc(/C=C/C(=O)NCc2cc3cc(-c4ccc(C(=O)N5CCC(F)(F)CC5)cc4)cc(-c4cccnc4)c3o2)cn1 [Compound 724, (E)-3-(6-aminopyridin-3-yl)-N-((5-(4-(4,4-difluoropiperidine-1-carbonyl)phenyl)-7-(pyridin-3-yl)benzofuran-2-yl)methyl)acrylamide] | < 100 nM | 100 to 5000 nM | < 100 nM
O=C(/C=C/c1cccnc1)NCc1cc2cc(-c3ccc(C(=O)N4CCC(F)(F)CC4)cc3)cc(-c3cccnc3)c2o1 [Compound 725, (E)-N-((5-(4-(4,4-difluoropiperidine-1-carbonyl)phenyl)-7-(pyridin-3-yl)benzofuran-2-yl)methyl)-3-(pyridin-3-yl)acrylamide] | < 100 nM | < 100 nM | < 100 nM
Nc1ccc(/C=C/C(=O)NCc2cc3cc(-c4ccc(C(=O)N5CCC(F)(F)CC5)cc4)cc(-c4cccc(F)c4)c3o2)cn1 [Compound 726, (E)-3-(6-aminopyridin-3-yl)-N-((5-(4-(4,4-difluoropiperidine-1-carbonyl)phenyl)-7-(3-fluorophenyl)benzofuran-2-yl)methyl)acrylamide] | < 100 nM | 100 to 5000 nM | < 100 nM
O=C(/C=C/c1cccnc1)NCc1cc2cc(-c3ccc(C(=O)N4CCC(F)(F)CC4)cc3)cc(-c3cccc(F)c3)c2o1 [Compound 727, (E)-N-((5-(4-(4,4-difluoropiperidine-1-carbonyl)phenyl)-7-(3-fluorophenyl)benzofuran-2-yl)methyl)-3-(pyridin-3-yl)acrylamide] | < 100 nM | < 100 nM | < 100 nM
O=C(/C=C/c1cccnc1)NCc1cc2cc(-c3ccc(C(=O)N4CCC(F)(F)CC4)cc3)cc(-c3ccc(F)cc3)c2o1 [Compound 729] | < 100 nM | < 100 nM | < 100 nM
COc1ccc(Cl)cc1-c1cc(-c2ccc(C(=O)N3CCC(F)(F)CC3)cc2)cc2cc(CNC(=O)/C=C/c3ccc(N)nc3)oc12 [Compound 730, (E)-3-(6-aminopyridin-3-yl)-N-((7-(5-chloro-2-methoxyphenyl)-5-(4-(4,4-difluoropiperidine-1-carbonyl)phenyl)benzofuran-2-yl)methyl)acrylamide] | < 100 nM | < 100 nM | < 100 nM
